{"source": "paper PMC9340770", "about": "(Journal of Medicinal Chemistry, 2022)", "key": {"MAOA": {"molecular_target": "T1, MAOA (Homo sapiens, UniProt P21397)", "T1 construct": "purchased DiscoverX (Eurofins)", "T1 sequence (P21397 whole entry)": "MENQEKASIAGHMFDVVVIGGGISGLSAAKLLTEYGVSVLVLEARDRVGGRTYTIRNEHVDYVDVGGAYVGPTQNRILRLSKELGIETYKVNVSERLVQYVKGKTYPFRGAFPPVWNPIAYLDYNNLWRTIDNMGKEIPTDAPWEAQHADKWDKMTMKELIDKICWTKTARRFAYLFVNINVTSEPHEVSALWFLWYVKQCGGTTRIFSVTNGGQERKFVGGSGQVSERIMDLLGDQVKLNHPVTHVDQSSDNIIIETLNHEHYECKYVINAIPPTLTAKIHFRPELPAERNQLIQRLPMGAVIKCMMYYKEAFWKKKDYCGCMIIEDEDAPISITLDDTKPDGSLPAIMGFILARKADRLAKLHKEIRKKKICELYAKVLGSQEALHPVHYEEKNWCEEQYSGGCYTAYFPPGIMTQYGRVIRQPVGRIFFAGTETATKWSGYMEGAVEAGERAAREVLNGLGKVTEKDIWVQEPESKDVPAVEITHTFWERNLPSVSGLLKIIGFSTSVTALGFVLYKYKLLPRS", "test": "Safetyscan Enzymatic", "format": "biochemical", "conditions": "read-out: RC50 (IC50) MAOA Inhibitor"}, "AVPR1A": {"molecular_target": "T2, AVPR1A (Homo sapiens, UniProt P37288)", "T2 construct": "purchased DiscoverX (Eurofins) Safetyscan Panel", "T2 sequence (P37288 whole entry)": "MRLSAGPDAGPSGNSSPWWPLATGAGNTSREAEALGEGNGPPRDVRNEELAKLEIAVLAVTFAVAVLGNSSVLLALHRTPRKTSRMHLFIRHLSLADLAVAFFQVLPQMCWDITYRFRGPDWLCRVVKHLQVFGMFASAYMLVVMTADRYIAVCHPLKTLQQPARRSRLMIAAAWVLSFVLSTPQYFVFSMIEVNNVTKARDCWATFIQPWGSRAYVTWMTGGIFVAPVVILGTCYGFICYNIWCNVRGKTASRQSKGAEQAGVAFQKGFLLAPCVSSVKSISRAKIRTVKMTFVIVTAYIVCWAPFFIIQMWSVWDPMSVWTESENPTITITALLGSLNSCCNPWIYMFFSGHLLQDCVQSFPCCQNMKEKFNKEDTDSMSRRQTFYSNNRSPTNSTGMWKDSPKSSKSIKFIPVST", "test": "Safetyscan Calcium Flux", "format": "cell-based"}, "PDE4D2": {"molecular_target": "T3, PDE4D2 (Homo sapiens, UniProt Q08499)", "T3 construct": "purchased DiscoverX (Eurofins)", "T3 sequence (Q08499 303-809 limits assumed)": "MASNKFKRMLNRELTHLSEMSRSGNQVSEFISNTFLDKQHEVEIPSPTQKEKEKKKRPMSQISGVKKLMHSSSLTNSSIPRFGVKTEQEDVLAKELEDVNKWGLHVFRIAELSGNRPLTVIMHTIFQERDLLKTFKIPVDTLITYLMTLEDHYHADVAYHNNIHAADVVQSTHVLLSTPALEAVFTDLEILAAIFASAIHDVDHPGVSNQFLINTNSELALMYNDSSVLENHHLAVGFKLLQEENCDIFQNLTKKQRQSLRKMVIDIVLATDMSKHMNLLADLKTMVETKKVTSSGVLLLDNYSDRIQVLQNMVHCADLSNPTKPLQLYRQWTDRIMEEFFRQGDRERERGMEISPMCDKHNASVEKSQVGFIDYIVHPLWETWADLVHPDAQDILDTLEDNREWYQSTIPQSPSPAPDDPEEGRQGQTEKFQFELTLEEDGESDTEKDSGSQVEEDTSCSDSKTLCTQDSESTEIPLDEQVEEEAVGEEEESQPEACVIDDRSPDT", "test": "Safetyscan Enzymatic", "format": "biochemical", "conditions": "read-out: RC50 (IC50) PDE4D2 Inhibitor"}, "CNS mouse PK study": {"test": "CNS mouse PK study", "format": "in vivo, female CD-1 mice", "conditions": "female, CD-1, mouse, CSF / free plasma, read-out: CSF:Cp,u (Kp,uu)", "source_text": "Table 10 CNS Mouse PK Profile of MRTX0902 (32) ^a | column: mean free plasma concn (Cp,u, nM); mean brain concn (ng/g); mean CSF concn (nM); CSF:Cp,u (Kp,uu)"}, "SOS2": {"molecular_target": "T4, SOS2 (Homo sapiens, UniProt Q07890)", "T4 construct": "amino acids 558-1047, expressed in E. coli with a N-terminal HIS-tag MW=59.3 kDa; His (N); purchased Accelagen Inc; host or cells: E. coli", "T4 sequence (Q07890 558-1047)": "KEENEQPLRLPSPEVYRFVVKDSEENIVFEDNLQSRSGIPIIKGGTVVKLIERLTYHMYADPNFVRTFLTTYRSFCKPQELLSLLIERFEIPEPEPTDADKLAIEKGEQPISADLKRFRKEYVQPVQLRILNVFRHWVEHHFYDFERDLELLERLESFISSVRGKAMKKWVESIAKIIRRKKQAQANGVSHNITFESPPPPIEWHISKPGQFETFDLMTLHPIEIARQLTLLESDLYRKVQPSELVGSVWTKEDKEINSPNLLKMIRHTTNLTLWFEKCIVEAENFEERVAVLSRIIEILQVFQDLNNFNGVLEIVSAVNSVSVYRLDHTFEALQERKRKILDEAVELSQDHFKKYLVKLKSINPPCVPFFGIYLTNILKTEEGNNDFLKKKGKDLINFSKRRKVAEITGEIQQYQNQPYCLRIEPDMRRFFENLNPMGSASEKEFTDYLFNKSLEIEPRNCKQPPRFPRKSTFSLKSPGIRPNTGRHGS", "test": "SOS2 KRAS WT GDP exchange assay", "format": "biochemical", "method": "The plates were incubated overnight at 4 °C on a shaker.\nEach plate was washed 3x times […]\nfor 2 hours (protected from light). The secondary antibody solution as removed and each plate […]\nwas washed with PBST 3x times. […]\nlength at 3mm and both 800nm and 700nm filters. The GAPDH normalized scan values for each […]\nwere then calculated with the Graph pad Prism software.\nEGFR selectivity was profiled using Reaction Biology’s radiometric HotSpot kinase assay with human EGFR. Compounds were sent as a powder then suspended as a 10 mM DMSO stock […]\nstarting at 20 μM. Reactions were carried out at 10 μM ATP.\nSOS2 KRAS WT GDP Exchange Assay\nThe final conditions for the Functional SOS2 Assay are as follows: 50 mM HEPES 7.5, 2nM SOS2, 50nM GTP-CY5, 30nM KRAS, 0.5 nM Tb-SA, 5 mM MgCl2, 1 mM TCEP, 0.2 mg/mL BSA, ~1.0% DMSO. Recombinant human SOS2 polypeptide (Accelagen Inc., corresponding to amino acids 558-1047, expressed in E. coli with a N-terminal HIS-tag MW=59.3 kDa) and Cy5-GTP (Jena Bioscience Inc) were added to an exemplary compound (in a DMSO stock solution) at room temperature for 15 minutes. […] 100 percent of control (POC) is determined by using a DMSO control and 0 POC is determined using a concentration of control […]"}, "hERG": {"molecular_target": "T5, hERG (Homo sapiens, UniProt Q12809)", "T5 construct": "purchased DiscoverX (Eurofins)", "T5 sequence (Q12809 whole entry)": "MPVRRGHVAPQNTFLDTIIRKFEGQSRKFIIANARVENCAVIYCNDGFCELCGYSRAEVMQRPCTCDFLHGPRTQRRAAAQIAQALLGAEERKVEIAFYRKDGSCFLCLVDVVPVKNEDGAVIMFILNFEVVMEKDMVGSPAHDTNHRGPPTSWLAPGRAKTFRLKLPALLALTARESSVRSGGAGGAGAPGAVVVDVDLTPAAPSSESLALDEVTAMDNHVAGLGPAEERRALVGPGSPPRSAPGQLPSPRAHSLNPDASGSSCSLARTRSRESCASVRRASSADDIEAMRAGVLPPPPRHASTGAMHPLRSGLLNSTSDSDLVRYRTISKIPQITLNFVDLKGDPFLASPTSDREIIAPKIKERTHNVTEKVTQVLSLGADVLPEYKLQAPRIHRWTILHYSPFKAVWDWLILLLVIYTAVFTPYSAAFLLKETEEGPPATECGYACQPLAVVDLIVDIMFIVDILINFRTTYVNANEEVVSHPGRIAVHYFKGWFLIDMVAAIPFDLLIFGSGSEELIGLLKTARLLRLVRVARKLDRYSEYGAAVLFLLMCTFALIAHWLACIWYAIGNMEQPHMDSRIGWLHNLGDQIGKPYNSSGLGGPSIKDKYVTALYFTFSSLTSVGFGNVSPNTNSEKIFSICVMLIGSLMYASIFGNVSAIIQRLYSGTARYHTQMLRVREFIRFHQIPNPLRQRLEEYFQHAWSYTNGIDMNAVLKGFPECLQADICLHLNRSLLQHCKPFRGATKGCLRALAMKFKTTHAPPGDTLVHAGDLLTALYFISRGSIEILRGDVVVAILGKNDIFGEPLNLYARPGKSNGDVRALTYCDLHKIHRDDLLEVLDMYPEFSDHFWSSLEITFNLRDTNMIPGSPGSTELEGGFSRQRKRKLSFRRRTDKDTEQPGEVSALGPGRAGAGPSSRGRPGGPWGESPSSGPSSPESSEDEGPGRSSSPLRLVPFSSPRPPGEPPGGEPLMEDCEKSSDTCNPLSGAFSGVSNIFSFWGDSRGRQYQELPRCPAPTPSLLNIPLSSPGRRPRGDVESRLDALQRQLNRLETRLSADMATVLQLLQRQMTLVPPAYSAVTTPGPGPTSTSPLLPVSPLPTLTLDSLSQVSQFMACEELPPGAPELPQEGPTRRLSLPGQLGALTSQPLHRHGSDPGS", "test": "Safetyscan Ion Channel", "format": "cell-based", "conditions": "blocker mode, read-out: RC50 (IC50) hERG Blocker"}, "Dog PK (IV and PO)": {"test": "Dog PK (IV and PO)", "format": "in vivo, beagle dogs", "source_text": "Table 9 PK Parameters for MRTX0902 (32) across Species | column: dog"}, "[1]": {"test_system": "pERK in MIA PaCa-2 tumors", "test": "Tumor pharmacodynamic (pERK) study in MIA PaCa-2 mouse xenograft"}, "[2]": {"conditions": "mouse, IV 3 mg/kg"}}, "data": [{"compound": "Cc1c(C#N)cccc1[C@@H](C)Nc1nnc(C)c2cnc(N3CCOCC3)cc12", "note": "[Compound 32, (R)-2-Methyl-3-(1-((4-methyl-7-morpholinopyrido[3,4-d]pyridazin-1-yl)amino)ethyl)benzonitrile]", "values": [{"measurement": "IC50", "setting": "MAOA", "result": 8.88, "unit": "µM"}, {"measurement": "EC50", "setting": "AVPR1A; agonist mode, read-out: RC50 (EC50) AVPR1A Agonist", "result": "> 10", "unit": "µM"}, {"measurement": "IC50", "setting": "AVPR1A; antagonist mode, read-out: RC50 (IC50) AVPR1A Antagonist", "result": "> 10", "unit": "µM"}, {"measurement": "IC50", "setting": "PDE4D2", "result": "> 10", "unit": "µM"}, {"measurement": "Kp uu at 1 h", "setting": "CNS mouse PK study; 1 h after PO 100 mg/kg single dose", "result": 1.56}, {"measurement": "Kp uu at 8 h", "setting": "CNS mouse PK study; 8 h after PO 100 mg/kg single dose", "result": 1.03}, {"measurement": "IC50", "setting": "SOS2", "result": "> 10", "unit": "µM"}, {"measurement": "IC50", "setting": "hERG", "result": "> 10", "unit": "µM"}, {"measurement": "F", "setting": "Dog PK (IV and PO); IV/PO 2/10 mg/kg, PO suspension in 0.5% MC (4000 cps)/0.2% Tween80 in water", "result": 38, "unit": "%"}, {"measurement": "clearance", "setting": "Dog PK (IV and PO); beagle, in vivo, IV 2 mg/kg", "result": 7.6, "unit": "mL/min/kg"}, {"measurement": "half-life", "setting": "Dog PK (IV and PO); beagle, in vivo, IV 2 mg/kg, read-out: IV t1/2 (converted)", "result": 51.6, "unit": "min"}, {"measurement": "Vd", "setting": "Dog PK (IV and PO); beagle, in vivo, IV 2 mg/kg, read-out: Vd,ss", "result": 0.48, "unit": "L/kg"}, {"measurement": "pERK modulation in tumors, combination", "setting": "[1]; MRTX0902 in combination with MRTX849, 6 days of dosing, tumors collected 4 h after last dose", "result": "increased pERK modulation"}, {"measurement": "efficacious free Cavg", "setting": "[1]; calculated from AUC0–24 of 50 mg/kg bid in combination with MRTX849, MIA PaCa-2 PD study, 6 days of dosing", "result": 25, "unit": "nM"}, {"measurement": "Cl", "setting": "[2]", "result": 4.4, "unit": "mL/min/kg"}, {"measurement": "IV t1/2", "setting": "[2]", "result": 78, "unit": "min"}, {"measurement": "Vd,ss", "setting": "[2]", "result": 0.28, "unit": "L/kg"}]}]}
